In patent publication US20070026090A1, “Treatment and prevention of inflammatory disease and mitochondrial dysfunction with high dose selenium” (priority 2003, published 2007):
Entries after “also recorded” stand apart in the source; their conditions may differ.

Experiments:
[1] = system: Electron Transport Chain (complex 1); assay: Oxygen consumption of fresh colon tissue with rotenone; settings: healthy rat colon tissue; 20 μg/ml rotenone (FIG. 4)
Protocol: Mitochondrial respiration activity in colon tissue: Mitochondrial respiration was measured by direct assessment of oxygen consumption of the tissue. Briefly, colons were removed, chilled on ice, and washed extensively with cold PBS. Colon tissue samples (5-10 mm in width, 100 mg) were incubated at ambient temperature in PBS supplemented with 5 mM glucose. Oxygen consumption was measured polarographically using a computerized Clark-type oxygen electrode. The addition of the Electron Transport Chain (complex 1) inhibitor rotenone was used to determine whether the majority of oxygen consumption measured in the colon samples was mitochondrial respiration-dependent.

[2] = mice, at 60 and 90 days; as selenocysteine; cited from earlier work
AOM-induced colon cancer = settings: up to 5.4 ppm in water; cited from earlier work
[3] = Selenium incorporation into colon tissue (ICP-AES); format: in vivo, rat
Protocol: Measurement of selenium incorporation into colon tissue: inductively coupled plasma (ICP) method: Colon tissue samples were prepared for analysis of selenium content by microwave-assisted digestion using an MLS 1200 mega microwave digestion unit [Milestone Sorisole (BG), Italy]. At the conclusion of the digestion period the vessels were allowed to cool down to room temperature and were uncapped. Liquid residues were taken up in water, transferred into 25-ml calibrated flasks and equilibrated to 25 ml volume with water. Analyses were conducted on portions of these solutions, versus multi-element selenium standards from Merck (Merck and Co, EMBD Biosciences, San Diego Calif.) in the same solvent. Selenium (Se) was determined by ICP-atomic emission spectrometry (AES) at 196.090 nm. An ICP-AES system, model “Spectroflame Modula E” from Spectro, Kleve, Germany was used with a cross-flow nebulizer. The power level was 1.2 kW, coolant flow 15 l/min, auxiliary flow 0.5 l/min and nebulizer flow 0.5 l/min. Observation height was 10 mm above the coil.

[4] = system: myeloperoxidase (MPO) activity; assay: Tissue inflammation: myeloperoxidase activity in colon tissue; format: in vivo, rat; settings: 24 h after TNBS; 16 ppm sodium selenite in drinking water, three weeks (FIG. 3 column D)
Protocol: Tissue inflammation-Myeloperoxidase activity: Colonic tissue samples (approximately 100-120 mg) were collected 4 cm proximal to the anus. Each tissue sample was homogenized in a solution containing 0.5% hexa-decyl-trimethyl-ammonium bromide (HTAB) (Sigma-Aldrich Corp, St. Louis, Mo.) buffer (0.5% HTAB in 50 mM phosphate buffer, pH 6.0). Tissue samples were minced in a test tube containing 1 ml of HTAB buffer on ice and homogenized with a Polytron tissue homogenizer (Brinkmann Instruments, Inc, Westbury N.Y., USA). The pooled homogenates and washes were sonicated in water for 20 seconds. After three cycles of freeze-thawing, the sonicated samples were centrifuged in cold for 15 min. at 40,000×g. Myeloperoxidase activity (MPO) was assayed in the supernatant as described by Krawisz (Krawisz et al., 1984) after addition of O-dianizidine-HCl (Sigma-Aldrich Corp, St Louis, Mo.) and 0.15% (v/v) H2O2 as a substrate for the MPO. The rate of change in absorbance was measured spectrophotometrically at 460 nm, and is expressed as the amount of enzyme necessary to produce a change in absorbance of 1.0 unit per minute (1 unit) per gram wet weight tissue.

[5] = system: glutathione peroxidase (GPx); assay: GPx activity in macrophage cell extract; format: cell-based, murine; settings: 24 h; range 0.5-30 μM (FIG. 8B)
Protocol: (§1) Cell culture: Murine J774.2 macrophages (kindly provided by Prof. Dov Zipori from the Weizmann Institute of Science) were grown in RPMI medium supplemented with 10% (w/v) fetal calf serum, penicillin (100 U/ml), streptomycin (100 μg/ml) and 1× glutamine at 37° C. in a humidified atmosphere consisting of 95% air and 5% CO2. Experiments were performed on cells at 60% confluence.
GPx activity: GPx activity was determined by following the rate of NADPH oxidation at 340 nm in the presence of the substrates: 3 mM glutathione (GSH), 1.2 U glutathione reductase (GR) and 1.5% H2O2, using a microfluorometer plate reader (GENios, Tecan, Austria). The reaction contained 500 μl Tris reaction buffer (100 mM Tris Hcl, 300 mM Kcl, 5 mM EDTA, 1 mM NaN3, pH 7.0), substrates and 100 μl cell extract. Macrophages were treated with selenium for 24 h. Wells were washed twice with PBS, cells permeabilized, and scraped using 200 μl 0.2% Triton X-100. The reaction was recorded every minute for 25 minutes. Slopes were calculated and the results were adjusted according to the protein amount calculated with the Bradford reagent.

MnSOD = MnSOD transcription and expression (RTPCR, Western blot); format: cell-based, murine; settings: LPS + INFγ activated; 24 hours; range 0.5-5 μM (FIG. 11)
Protocol: as §1
(§2) Western blots (Sp1, MnSOD, UCP2): Cells were grown in six-well tissue culture plates, treated with selenium for 72 h and activated with LPS and IFN-γ for 24 h. The wells were washed with PBS, scraped and centrifuged
(5 min. 2000 RPM), and lysed by addition of boiling hot lysis buffer (1% SDS, 1 mM sodium ortho-vanadate, 10 mM Tris pH 7.4) to the pellets. Protein content was measured (BIO RAD protein assay kit) and equalized. Sample buffer (containg SDS) was added and the samples were boiled. The samples were subjected to SDS-PAGE followed by western blot analysis. Separated proteins were transferred electrophoretically from the gel to a nitrocellulose membrane (Amersham International plc, Buckinghamshire, ENGLAND). The membrane was blocked in TBS (0.15 M NaCl/10 mM Tris/HCl, pH7.4) containing 5% (v/v) skimmed milk (Blotto), then incubated over night with primary antibodies at RT (diluted 1/2000 in blotto). After being washed six times in TBST [TBS containing 0.05% (v/v) Tween 20], the membrane was incubated for 2 h at room temperature with secondary antibody (diluted 1/5000 in blotto). Immunoreactive bands were detected with ECL western blotting detection reagents (Amersham Pharmacia Biotech, Buckingammshire England) and developed on film (Fuji super RX, Dusseldorf, Germany). […]
Right (antisense) 5′[…]-3′ (SEQ ID NO: 6) corresponding to nucleotides 622 to 640 of mouse mRNA region (GenBank Accession No. NM 013671). […] Actual PCR product was approximately 570 bp, measured on 1.25% agarose gel in TAE containing ethidium bromide.
(§3) PCR was performed with 28 cycles (25 cycles for GAPDH) of 30 seconds at 96° C., 30 seconds at 58° C. and 1 min at 72° C. RTPCR products were analyzed on 1.3% (w/v) agarose gels.

UCP2 = UCP2 transcription and expression (RTPCR, Western blot); format: cell-based, murine
Protocol: as §1, §2
(5 min. 2000 RPM), and lysed by addition of boiling hot lysis buffer (1% SDS, 1 mM sodium ortho-vanadate, 10 mM Tris pH 7.4) to the pellets. Protein content was measured (BIO RAD protein assay kit) and equalized. Sample buffer (containg SDS) was added and the samples were boiled. The samples were subjected to SDS-PAGE followed by western blot analysis. Separated proteins were transferred electrophoretically from the gel to a nitrocellulose membrane (Amersham International plc, Buckinghamshire, ENGLAND). The membrane was blocked in TBS (0.15 M NaCl/10 mM Tris/HCl, pH7.4) containing 5% (v/v) skimmed milk (Blotto), then incubated over night with primary antibodies at RT (diluted 1/2000 in blotto). After being washed six times in TBST [TBS containing 0.05% (v/v) Tween 20], the membrane was incubated for 2 h at room temperature with secondary antibody (diluted 1/5000 in blotto). Immunoreactive bands were detected with ECL western blotting detection reagents (Amersham Pharmacia Biotech, Buckingammshire England) and developed on film (Fuji super RX, Dusseldorf, Germany). Primary antibodies for Sp1 and MnSOD were from BD Transduction Laboratories (Becton Dickenson and Co., San Jose, Calif. USA) and for UCP2 from Alpha Diagnostics LTD (Warszaw, Poland). Secondary antibodies were from Jackson ImmunoResearch (Jackson Labs, Bar Harbor, Maine, USA).
Reverse transcriptase-PCR (RTPCR): Total RNA was prepared and isolated by the Tri-Reagent method according to the manufacturer's protocol (Sigma, St. Louis Mo., USA). Total RNA (1 μg) was converted into cDNA using Reverse-iT first strand synthesis kit (Abgene, UK). Amplification of MnSOD and UCP2 sequences was performed by incubating 10 ng equivalents of DNA with the following oligonucleotide primers:
Left (sense), 5′-[…]-3′ (SEQ ID NO:7) corresponding to nucleotides 372 to 392 of mouse mRNA (GenBank Accession No. NM 011671).
Right (antisense) 5′[…]-3′ (SEQ ID NO: 8) corresponding to nucleotides 826 to 846 of mouse mRNA (GenBank Accession No. NM 011671). The expected PCR product was 474 bp. Actual PCR product was approximately 474 bp, measured on 1.25% agarose gel in TAE containing ethidium bromide.
as §3

[6] = Cell viability (PI exclusion, flow cytometry); format: cell-based, murine; settings: mouse, 10 μM during or after activation (FIGS. 14A, 14B); read-out: decrease in cell viability, activated and inactivated cells
Protocol: Experiments were performed on cells at 60% confluence.
Determination of cell viability: Cell-membrane integrity was detected by flow cytometer (FACSort, Becton Dickenson and Co., San Jose, Calif. USA) as a measurement of cell viability. For this assay, the nonpermeant DNA-intercalating dye propidium iodide (PI), which is excluded by viable cells, was used. Fluorescence settings were excitation at 488 nm and emission at 575 nm. Data were collected from at least 10,000 cells.

[7] = mice and rats; up to 0.8 mg/kg body weight selenium; cited from earlier work

SMILES: C=C(C)[C@H]1Cc2c(ccc3c2O[C@@H]2COc4cc(OC)c(OC)cc4[C@@H]2C3=O)O1 [rotenone]
- respiration (O2 consumption) of colon tissue [1]: strongly inhibited; also recorded: significantly reduced

SMILES: N[C@@H](C[SeH])C(=O)O [selenocysteine]
- dietary supplementation at which toxicity was observed [2]: greater than 10 mg selenium per kg body weight per day

SMILES: C[Se]CC[C@H](N)C(=O)O [selenomethionine]
- anti-cancer treatment effect (AOM-induced colon cancer): ineffective

SMILES: O=[Se](O)O [sodium selenite]
- increase in colon tissue selenium levels compared with healthy rats ([3]; colitis-induced rats, 24 h after TNBS, 16 ppm in water, three weeks (FIG. 1 C and D)): greater
- colon tissue selenium vs untreated controls ([3]; healthy and colitis rats (columns B and D vs A and C), 16 ppm in drinking water, three weeks): enhanced levels
- protection against TNBS-induced inflammation (MPO activity) [4]: > 80%
- concentration of maximum stimulation of GPx activity [5]: 0.5 µM
- lowest concentration effective in reducing MnSOD expression, activated macrophages (MnSOD): 1 µM
- lowest concentration giving a significant decrease in UCP2 transcripts (UCP2; 24 and 72 hours (FIG. 10A)): 5 µM
- reduction in detectable UCP2 protein (UCP2; 24 hours at 30 μM (FIG. 10B)): greater than 50%
- lowest concentration effective in reducing UCP2 expression, activated macrophages (UCP2; LPS + INFγ activated, 24 hours, range 0.5-5 μM (FIG. 11)): 1 µM
- cytotoxicity at 10 μM [6]: ≤ 60%
- adverse effects of long term supplementation [7]: no observable adverse effects
